From US20080132505A1 (Glaxo Group Limited, priority 2004, published 2008)
Like-named read-outs stand apart in the source and are kept apart here.

Target: human cannabinoid CB2 receptor (Homo sapiens, UniProt P34972)
Assay: Cannabinoid CB2 receptor agonist activity (yeast reporter assay, FDGlu fluorescence)
Type: cell-based
Conditions: for Emax: read-out: efficacy value (Emax relative to HU210) at the cloned human cannabinoid CB2 receptor
How it was run: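 Agonist-driven growth was read as fluorescein fluorescence (ex 485, em 535 nm) from FDGlu cleavage after 24 h at 30 °C, using yeast strain MMY23 carrying human CB2 and chimeric Gpa1/Gαi3. Medium had 10 mM 3-aminotriazole, pH 7.0; four-parameter fits gave EC50, with Emax and EMR versus HU210.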

[1] = EC50 value at the cloned human cannabinoid CB2 receptor
[2] = read-out: EC50 value at the cloned human cannabinoid CB2 receptor

Chain of human cannabinoid CB2 receptor (P34972 whole entry): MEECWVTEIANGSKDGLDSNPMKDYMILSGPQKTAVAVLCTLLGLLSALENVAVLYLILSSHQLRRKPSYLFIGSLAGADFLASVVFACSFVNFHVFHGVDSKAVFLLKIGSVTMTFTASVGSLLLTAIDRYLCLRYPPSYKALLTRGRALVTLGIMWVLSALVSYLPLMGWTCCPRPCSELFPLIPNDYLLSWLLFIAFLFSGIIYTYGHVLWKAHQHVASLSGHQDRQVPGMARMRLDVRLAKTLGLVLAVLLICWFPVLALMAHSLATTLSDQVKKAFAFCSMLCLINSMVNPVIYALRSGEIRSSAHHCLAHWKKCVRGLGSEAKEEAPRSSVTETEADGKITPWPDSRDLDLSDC

| EC50 [2] | Structure (SMILES) | EC50 [1] | Emax |
| --- | --- | --- | --- |
|  | O=C(NCC1CCOCC1)c1cnc(Nc2ccc(Cl)cc2F)nc1C(F)(F)F [Example 99, 2-(2-Fluoro-4-chlorophenylamino)-4-trifluoromethyl-pyrimidine-5-carboxylic acid (tetrahydro-pyran-4-ylmethyl)-amide] | 300 to 1000 nM | > 50% |
|  | O=C(NCC1CCCCC1)c1cnc(Nc2ccc(F)cc2C(F)(F)F)nc1C(F)(F)F [Example 100, 2-(2-Trifluoromethyl-4-fluorophenylamino)-4-trifluoromethyl-pyrimidine-5-carboxylic acid cyclohexylmethyl-amide] | 300 to 1000 nM | > 50% |
|  | O=C(NCC1CCC1)c1cnc(Nc2ccc(F)cc2C(F)(F)F)nc1C(F)(F)F [Example 101, 2-(2-Trifluoromethyl-4-fluorophenylamino)-4-trifluoromethyl-pyrimidine-5-carboxylic acid cyclobutylmethyl-amide] | 300 to 1000 nM | > 50% |
|  | O=C(NCC1CCC1)c1cnc(Nc2ccc(C(F)(F)F)cc2Cl)nc1C(F)(F)F [Example 102, 2-(2-Chloro-4-trifluoromethylphenylamino)-4-trifluoromethyl-pyrimidine-5-carboxylic acid cyclobutylmethyl-amide] | 300 to 1000 nM | > 50% |
|  | N#Cc1ccc(Nc2ncc(C(=O)NCC3CCC3)c(C(F)(F)F)n2)c(Cl)c1 [Example 103, 2-(2-Chloro-4-cyanophenylamino)-4-trifluoromethyl-pyrimidine-5-carboxylic acid cyclobutylmethyl-amide] | 300 to 1000 nM | > 50% |
|  | O=C(NCC1CCOCC1)c1cnc(Nc2ccc(Cl)cc2C(F)(F)F)nc1C(F)(F)F [Example 104, 2-(2-Trifluoromethyl-4-chlorophenylamino)-4-trifluoromethyl-pyrimidine-5-carboxylic acid (tetrahydro-pyran-4-ylmethyl)-amide] | 300 to 1000 nM | > 50% |
|  | O=C(NCC1CCC1)c1cnc(Nc2ccc(Br)cc2C(F)(F)F)nc1C(F)(F)F [Example 105, 2-(2-Trifluoromethyl-4-bromophenylamino)-4-trifluoromethyl-pyrimidine-5-carboxylic acid cyclobutylmethyl-amide] | 300 to 1000 nM | > 50% |
|  | O=C(NCC1CCCCC1)c1cnc(Nc2ccc(Br)cc2C(F)(F)F)nc1C(F)(F)F [Example 106, 2-(2-Trifluoromethyl-4-bromophenylamino)-4-trifluoromethyl-pyrimidine-5-carboxylic acid cyclohexylmethyl-amide] | 300 to 1000 nM | > 50% |
|  | O=C(NCC1CCOCC1)c1cnc(Nc2cccc(F)c2F)nc1C(F)(F)F [Example 107, 2-(2,3-Difluoro-phenylamino)-4-tri-fluoromethyl-pyrimidine-5-carboxylic acid (tetrahydropyran-4-ylmethyl)-amide] | 300 to 1000 nM | > 50% |
|  | Cc1ccc(Cl)cc1Nc1ncc(C(=O)NCC2CCOCC2)c(C(F)(F)F)n1 [Example 108, 2-(5-Chloro-2-methyl-phenylamino)-4-tri-fluoromethyl-pyrimidine-5-carboxylic acid (tetrahydropyran-4-ylmethyl)-amide] | 300 to 1000 nM | > 50% |
|  | N#Cc1c(Cl)cccc1Nc1ncc(C(=O)NCC2CCOCC2)c(C(F)(F)F)n1 [Example 109, 2-(3-Chloro-2-cyano-phenylamino)-4-tri-fluoromethyl-pyrimidine-5-carboxylic acid (tetrahydropyran-4-ylmethyl)-amide] | 300 to 1000 nM | > 50% |
|  | Cc1ccc(Nc2ncc(C(=O)NCC3CCOCC3)c(C(F)(F)F)n2)c(Cl)c1 [Example 110, 2-(2-Chloro-4-methyl-phenylamino)-4-tri-fluoromethyl-pyrimidine-5-carboxylic acid (tetrahydropyran-4-ylmethyl)-amide] | 300 to 1000 nM | > 50% |
|  | N#Cc1cc(Nc2ncc(C(=O)NCC3CCOCC3)c(C(F)(F)F)n2)ccc1Cl [Example 111, 2-(4-Chloro-3-cyano-phenylamino)-4-tri-fluoromethyl-pyrimidine-5-carboxylic acid (tetrahydropyran-4-ylmethyl)-amide] | 300 to 1000 nM | > 50% |
|  | Cc1cc(Cl)ccc1Nc1ncc(C(=O)NCC2CCOCC2)c(C(F)(F)F)n1 [Example 112, 2-(4-Chloro-2-methyl-phenylamino)-4-tri-fluoromethyl-pyrimidine-5-carboxylic acid (tetrahydropyran-4-ylmethyl)-amide] | 300 to 1000 nM | > 50% |
|  | Cc1ccc(Cl)c(Nc2ncc(C(=O)NCC3CCOCC3)c(C(F)(F)F)n2)c1 [Example 113, 2-(2-Chloro-5-methyl-phenylamino)-4-tri-fluoromethyl-pyrimidine-5-carboxylic acid (tetrahydropyran-4-ylmethyl)-amide] | 300 to 1000 nM | > 50% |
| 20 to 300 nM | COc1cccc(Nc2ncc(C(=O)NCC3CCCCC3)c(C(F)(F)F)n2)c1 [Example 163, 2-(3-Methoxyphenylamino)-4-trifluoromethyl-pyrimidine-5-carboxylic acid cyclohexylmethyl-amide] |  |  |

| EC50 [2] | Structure (SMILES) | EC50 [1] | Emax |
| --- | --- | --- | --- |
|  | O=C(NCC1(O)CCCCC1)c1cnc(Nc2cccc(Cl)c2)nc1C(F)(F)F [Example 164, 2-(3-Chlorophenylamino)-4-trifluoromethyl-pyrimidine-5-carboxylic acid (1-hydroxycyclohexylmethyl)-amide] | 20 to 300 nM | > 50% |
|  | O=C(NCC1(O)CCCCC1)c1cnc(Nc2cccc(Br)c2)nc1C(F)(F)F [Example 165, 2-(3-Bromophenylamino)-4-trifluoromethyl-pyrimidine-5-carboxylic acid (1-hydroxycyclohexylmethyl)-amide] | 20 to 300 nM | > 50% |
|  | O=C(NCC1CCCCC1)c1cnc(Nc2ccc(F)c(Cl)c2)nc1C(F)(F)F [Example 166, 2-(3-Chloro-4-fluorophenylamino)-4-trifluoromethyl-pyrimidine-5-carboxylic acid cyclohexylmethyl-amide] | 20 to 300 nM | > 50% |
|  | O=C(NCC1CCCCC1)c1cnc(Nc2cccc(Cl)c2F)nc1C(F)(F)F [Example 167, 2-(3-Chloro-2-fluorophenylamino)-4-trifluoromethyl-pyrimidine-5-carboxylic acid cyclohexylmethyl-amide] | 20 to 300 nM | > 50% |
|  | O=C(NCC1CCCCC1)c1cnc(Nc2cc(Cl)ccc2F)nc1C(F)(F)F [Example 168, 2-(5-Chloro-2-fluorophenylamino)-4-trifluoromethyl-pyrimidine-5-carboxylic acid cyclohexylmethyl-amide] | 20 to 300 nM | > 50% |
|  | O=C(NCC1CCCCC1)c1cnc(Nc2cc(F)cc(F)c2)nc1C(F)(F)F [Example 169, 2-(3,5-Difluorophenylamino)-4-trifluoromethyl-pyrimidin-5-carboxylic acid cyclohexylmethyl-amide] | 20 to 300 nM | > 50% |
|  | O=C(NCC1CCCCC1)c1cnc(Nc2ccc(Cl)cc2C(F)(F)F)nc1C(F)(F)F [Example 170, 2-(4-Chloro-2-trifluoromethylphenylamino)-4-trifluoromethyl-pyrimidine-5-carboxylic acid cyclohexylmethyl-amide] | 20 to 300 nM | > 50% |
|  | N#Cc1cccc(Nc2ncc(C(=O)NCC3CCCCC3)c(C(F)(F)F)n2)c1 [Example 171, 2-(3-Cyanophenylamino)-4-trifluoromethyl-pyrimidine-5-carboxylic acid cyclohexylmethyl-amide] | 20 to 300 nM | > 50% |
|  | N#Cc1cccc(Nc2ncc(C(=O)NCC3CCOCC3)c(C(F)(F)F)n2)c1 [Example 172, 2-(3-Cyanophenylamino)-4-trifluoromethyl-pyrimidine-5-carboxylic acid (tetrahydropyran-4-ylmethyl)-amide] | 20 to 300 nM | > 50% |
|  | N#Cc1cccc(Nc2ncc(C(=O)NCC3CCCC3)c(C(F)(F)F)n2)c1 [Example 173, 2-(3-Cyanophenylamino)-4-trifluoromethyl-pyrimidine-5-carboxylic acid cyclopentylmethyl-amide] | 20 to 300 nM | > 50% |
| 20 to 300 nM | N#Cc1ccc(Nc2ncc(C(=O)NCC3CCCCC3)c(C(F)(F)F)n2)cc1 [Example 174, 2-(4-Cyanophenylamino)-4-trifluoromethyl-pyrimidine-5-carboxylic acid cyclohexylmethyl-amide] |  |  |
|  | N#Cc1ccc(Nc2ncc(C(=O)NCC3CCOCC3)c(C(F)(F)F)n2)cc1 [Example 175, 2-(4-Cyanophenylamino)-4-trifluoromethyl-pyrimidine-5-carboxylic acid (tetrahydropyran-4-ylmethyl)-amide] | 20 to 300 nM | > 50% |
|  | COc1cc(Nc2ncc(C(=O)NCC3CCOCC3)c(C(F)(F)F)n2)cc(C(F)(F)F)c1 [Example 177, 2-(3-Methoxy-5-(trifluoromethyl)phenylamino)-4-trifluoromethyl-pyrimidine-5-carboxylic acid (tetrahydropyran-4-ylmethyl)-amide] | 20 to 300 nM | > 50% |
|  | O=C(NCC1CCOCC1)c1cnc(Nc2cc(C(F)(F)F)cc(C(F)(F)F)c2)nc1C(F)(F)F [Example 178, 2-(3,5-Bis-trifluoromethylphenylamino)-4-trifluoromethyl-pyrimidine-5-carboxylic acid (tetrahydropyran-4-ylmethyl)-amide] | 20 to 300 nM | > 50% |
|  | O=C(NCC1CCOCC1)c1cnc(Nc2cc(Br)cc(C(F)(F)F)c2)nc1C(F)(F)F [Example 179, 2-(3-Bromo-5-(trifluoromethyl)phenylamino)-4-trifluoromethyl-pyrimidine-5-carboxylic acid (tetrahydropyran-4-ylmethyl)-amide] | 20 to 300 nM | > 50% |
